Measured values: patent US20120213805A1, “Amatoxin-Armed Tartget-Binding Moieties for the Treatment of Cancer” (priority 2009, published 2012)

How the values were obtained:
[1] = biological target: RNA-polymerase II (Homo sapiens, UniProt P24928); conditions: not covalently bound; read-out: KD of complex between amanitin and RNA-polymerase II; cited from earlier work
[2] = test system: BxPC-3 tumor xenografts; assay: BxPC-3 xenograft mouse tumor model; format: in vivo, NOD/SCID mice
Protocol: (§1) Five- to six-week old immunodeficient NOD/SCID mice were used for all experiments. BxPC-3 pancreatic or PC-3 prostate tumor cells (5×10^6 in 100 pi PBS) were transplanted subcutaneously to the right flank of the mice. Ten days later, when BxPC-3 tumors reached a volume of 30-80 mm^3 and PC-3 tumors reached a volume of 40-190 mm^3, the treatment was initiated. Animals received either control huHEA125 mAb at a dose of 15 mg/kg or huHEA125-amanitin conjugate (huHEA125-Ama) at a dose of 50 μg/kg of amanitin. Antibody and conjugate were administered as a single intraperitoneal injection.
(§2) Tumor growth was monitored for 16 days after initiation of the treatment. Tumor size was measured externally every third day using a caliper. Tumor volume was calculated according to the formula: V=π/6*a*b*c, where a, b and c are diameters in three dimensions. Data are presented as a relative tumor size/volume increase from the time of antibody administration.

[3] = test system: PC-3 tumor xenografts; assay: PC-3 xenograft mouse tumor model; format: in vivo, NOD/SCID mice
Protocol: as §1, §2

[4] = biological target: T1, epithelial cell adhesion molecule (EpCAM) (human, UniProt P16422 24-314); assay: binding to EpCAM-expressing cells; method not stated
T1 construct: whole, on cells; also called CD326; EpCAM antigen
T1 sequence (looked up): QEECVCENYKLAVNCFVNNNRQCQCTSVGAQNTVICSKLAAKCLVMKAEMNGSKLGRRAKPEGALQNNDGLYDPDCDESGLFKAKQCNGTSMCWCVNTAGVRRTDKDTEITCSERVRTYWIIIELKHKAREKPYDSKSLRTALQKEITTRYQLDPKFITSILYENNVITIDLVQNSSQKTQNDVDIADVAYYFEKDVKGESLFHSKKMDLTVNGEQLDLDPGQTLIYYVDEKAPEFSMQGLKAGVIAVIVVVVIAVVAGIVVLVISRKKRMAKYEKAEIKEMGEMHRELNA

[5] = 50 μg/kg of amanitin, single i.p. injection, BxPC-3
[6] = 50 μg/kg of amanitin, single i.p. injection, PC-3 tumor bearing mice

Molecule: amanitin
- Kd [1]: 3 nM

Molecule: α-Amanitin-glutarate-huHEA125 [huHEA125-amanitin]
- day from which tumor volume regressed dramatically [2, 5]: 7 days
- mice responding to treatment [2, 5]: All mice responded to treatment
- tumor growth [2, 5]: strongly inhibited
- body weight of the mice ([2]; 50 μg/kg of amanitin, single i.p. injection, BxPC-3 tumor bearing mice): neither a decrease in body weight
- mice with tumor completely eradicated ([2]; 50 μg/kg of amanitin, single i.p. injection, day 16, BxPC-3): 50%
- tolerability ([2]; 50 μg/kg of amanitin, single intraperitoneal injection, BxPC-3 tumor bearing mice): well tolerated
- tumor growth ([3]; 50 μg/kg of amanitin, single i.p. injection, PC-3): strongly retarded
- body weight of the mice [3, 6]: No decrease in the body weight
- tolerability [3, 6]: well tolerated

Molecule: huHEA125: chimeric anti-EpCAM antibody: mouse HEA125 variable domains with human kappa constant light chain and human IgG1 constant heavy chain
- tumor volume increase ([2]; 15 mg/kg single i.p. injection, day 16, BxPC-3, FIG. 9): approximately 880%
- tumor volume increase ([3]; 15 mg/kg single i.p. injection, day 10, PC-3, FIG. 10): approximately 550%

B1: chimeric antibody huHEA125 (antibody, human IgG1, kappa, V domains shown)
VH: EVKLLESGGGLVQPGGSLKLSCAASGFDFSRFWMTWVRQAPGKGLEWIGEINLDSSTINYTPSLKDKFIISRDNAKNTLFLQMSKVRSEDTALYYCSRGISMDYWGQGTSVTVSS
VL: DILLTQSPAILSVSPGERVSFSCRASQSIGISLHWYQQRPSDSPRLLIKYASESISGIPSRFSGSGSGTDFTLSINSVESEDIADYYCQQSNIWPTTFGAGTKLELKR
notes: also called unmodified huHEA125 antibody; non-conjugated huHEA125 antibody
- Kd [4]: 2.2 nM
